Measurements from paper PMC4392609, “Interactions of antiretroviral drugs with the SLC22A1 (OCT1) drug transporter” (Frontiers in Pharmacology, 2015).
Several values for one entry are separate records, joined by “and”; a condition that tells them apart may be missing. Equal entries are not always repeated. Where two headings read alike, the source gives them in different places.

Legend:
[1] = target: T1, SLC22A1 (Homo sapiens, UniProt O15245); set-up: expressed in transfected cells; method as in Jung et al., 2008; conditions: 1-methyl-4-phenylpyridinium as substrate, HEK-293 cells, 1 min incubation; efavirenz assessed only at 5 μM; ref Jung et al., 2008; cited from earlier work
T1 sequence (O15245 1-554): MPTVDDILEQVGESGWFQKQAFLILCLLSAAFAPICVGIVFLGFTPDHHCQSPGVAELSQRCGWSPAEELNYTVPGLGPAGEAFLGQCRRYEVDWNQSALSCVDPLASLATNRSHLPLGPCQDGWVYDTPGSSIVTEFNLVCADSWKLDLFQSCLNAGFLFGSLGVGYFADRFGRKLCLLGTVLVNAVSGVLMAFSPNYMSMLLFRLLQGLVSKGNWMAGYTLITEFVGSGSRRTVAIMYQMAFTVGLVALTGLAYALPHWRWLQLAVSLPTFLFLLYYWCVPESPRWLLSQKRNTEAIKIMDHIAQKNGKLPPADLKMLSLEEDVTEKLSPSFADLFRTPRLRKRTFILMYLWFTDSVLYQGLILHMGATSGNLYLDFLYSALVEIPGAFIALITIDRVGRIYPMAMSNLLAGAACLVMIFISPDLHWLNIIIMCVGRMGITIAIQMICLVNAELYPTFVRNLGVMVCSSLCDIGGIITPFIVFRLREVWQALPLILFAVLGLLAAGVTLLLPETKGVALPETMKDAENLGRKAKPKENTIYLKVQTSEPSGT

[2] = target: T1, SLC22A1; conditions: 30 min
Excerpt: Using intracellular radioactivity readings, the amount of drug in mock transfected cells was compared to SLC22A1-overexpressing KCL22 cells (% ± SD).

[3] = target: T1, SLC22A1; experiment: Tetraethylammonium accumulation in SLC22A1-overexpressing KCL22 cells co-incubated with 50 μM test drug; conditions: for Reduction in cellular accumulation (of tetraethylammonium): 50 μM drug, SLC22A1-overexpressing KCL22 cells
[4] = target: T1, SLC22A1; experiment: SLC22A1 IC50 determination (inhibition of tetraethylammonium accumulation over a concentration range); assay type: cell-based; set-up: expressed in transfected cells; conditions: for TEA accumulation when 100 μM inhibitor used (%compared to inhibitor-free control): tetraethylammonium 5.5 μM, 30 min
[5] = ref Villani et al., 1999; cited from earlier work
[6] = target: T1, SLC22A1; set-up: expressed in transfected cells; method as in Zhang et al., 2000; conditions: ref Zhang et al., 2000; cited from earlier work
[7] = SLC22A1-overexpressing KCL22 cells, 100 μM inhibitor

COC(=O)N[C@H](C(=O)N[C@@H](Cc1ccccc1)[C@@H](O)CN(Cc1ccc(-c2ccccn2)cc1)NC(=O)[C@@H](NC(=O)OC)C(C)(C)C)C(C)(C)C [atazanavir]
SLC22A1 inhibition in vitro [1]: no SLC22A1-inhibiting capability

O=C1Nc2ccc(Cl)cc2[C@@](C#CC2CC2)(C(F)(F)F)O1 [efavirenz]
Accumulation in SLC22A1-expressing cells compared to mock-transfected cells (% higher) ([2]; human, 20 μM): 17% | Amount of substrate in mock-transfected cells compared to SLC22A1-overexpressing cells (% less) ([2]; human, 20 μM): 17% | Reduction in cellular accumulation (of tetraethylammonium) [3]: 50.0% | TEA accumulation when 100 μM inhibitor used (%compared to inhibitor-free control) [4, 7]: 39.7% | IC50 ([4]; read-out: Absolute IC50): 21.8 µM | IC50 ([4]; read-out: Relative IC50): 7.4 µM | Maximum plasma concentration of efavirenz [5]: 12.7 µM | SLC22A1 inhibition in vitro [1]: did not show SLC22A1 inhibition

Cc1cc(C#N)cc(C)c1Oc1nc(Nc2ccc(C#N)cc2)nc(N)c1Br [etravirine]
Reduction in cellular accumulation (of tetraethylammonium) [3]: 22.5%

CC(C)(C)NC(=O)[C@@H]1CN(Cc2cccnc2)CCN1C[C@@H](O)C[C@@H](Cc1ccccc1)C(=O)N[C@H]1c2ccccc2C[C@H]1O [indinavir]
Effect on tetraethylammonium accumulation in SLC22A1-overexpressing Hela cells [6]: able to reduce tetraethylammonium accumulation

Nc1ccn([C@@H]2CS[C@H](CO)O2)c(=O)n1 [lamivudine]
SLC22A1 inhibition in vitro [1]: significant inhibition

Cc1c(O)cccc1C(=O)N[C@@H](CSc1ccccc1)[C@H](O)CN1C[C@H]2CCCC[C@H]2C[C@H]1C(=O)NC(C)(C)C [nelfinavir]
Effect on tetraethylammonium accumulation in SLC22A1-overexpressing Hela cells [6]: able to reduce tetraethylammonium accumulation | SLC22A1 inhibition in vitro [1]: inhibited

Cc1ccnc2c1NC(=O)c1cccnc1N2C1CC1 [nevirapine]
Reduction in cellular accumulation (of tetraethylammonium) [3]: 24.5%

COc1cc2nc(N3CCN(C(=O)c4ccco4)CC3)nc(N)c2cc1OC [prazosin]
Reduction in cellular tetraethylammonium accumulation ([4]; 100 μM inhibitor, SLC22A1-overexpressing KCL22 cells): 84% | TEA accumulation when 100 μM inhibitor used (%compared to inhibitor-free control) [4, 7]: 16.1% | IC50 ([4]; read-out: Absolute IC50): 2.8 µM | IC50 ([4]; read-out: Relative IC50): 2.3 µM

Cc1nnc(C(=O)NC(C)(C)c2nc(C(=O)NCc3ccc(F)cc3)c(O)c(=O)n2C)o1 [raltegravir]
Tetraethylammonium concentration in cells after 30 min incubation [3]: 9.6 ± 1.4 µM

Cc1cc(/C=C/C#N)cc(C)c1Nc1ccnc(Nc2ccc(C#N)cc2)n1 [rilpivirine]
Reduction in cellular accumulation (of tetraethylammonium) [3]: 41.2%

CC(C)c1nc(CN(C)C(=O)N[C@H](C(=O)N[C@@H](Cc2ccccc2)C[C@H](O)[C@H](Cc2ccccc2)NC(=O)OCc2cncs2)C(C)C)cs1 [ritonavir]
Effect on tetraethylammonium accumulation in SLC22A1-overexpressing Hela cells [6]: able to reduce tetraethylammonium accumulation | SLC22A1 inhibition in vitro [1]: inhibited

CC(C)(C)NC(=O)[C@@H]1C[C@@H]2CCCC[C@@H]2CN1C[C@@H](O)[C@H](Cc1ccccc1)NC(=O)[C@H](CC(N)=O)NC(=O)c1ccc2ccccc2n1 [saquinavir]
Effect on tetraethylammonium accumulation in SLC22A1-overexpressing Hela cells [6]: able to reduce tetraethylammonium accumulation

CC[N+](CC)(CC)CC [tetraethylammonium]
Amount of substrate in SLC22A1-overexpressing cells subjected to prazosin compared to SLC22A1-overexpressing cells (% less) ([2]; KCL22 cells, 100 μM prazosin, efavirenz 20 μM, darunavir 20 μM, tetraethylammonium 1 μM): 76% | Amount of substrate in mock-transfected cells compared to SLC22A1-overexpressing cells (% less) ([2]; KCL22 cells, efavirenz 20 μM, darunavir 20 μM, tetraethylammonium 1 μM): 92% | Tetraethylammonium cellular accumulation in mock transfected control KCL22 cells ([3]; tetraethylammonium 5.5 μM, 30 min, no inhibitor, mean ± SD, n = 3): 0.3 ± 0.04 µM and 0.3 ± 0.004 µM | Tetraethylammonium cellular accumulation in SLC22A1-overexpressing KCL22 cells ([3]; tetraethylammonium 5.5 μM, 30 min, no inhibitor, mean ± SD, n = 9): 10.6 ± 0.8 µM

Cc1cn([C@H]2C[C@H](N=[N+]=[N-])[C@@H](CO)O2)c(=O)[nH]c1=O [zidovudine]
Tetraethylammonium concentration in cells after 30 min incubation [3]: 8.5 ± 3.1 µM
